US8772504B2, “Substituted benzoxazole, benzimidazole, oxazolopyridine and imidazopyridine derivatives as gamma secretase modulators” (Janssen Pharmaceuticals, Inc., priority 2009, dated 2014)

Key:
Aβtotal = experiment: Screening for γ-secretase-modulating activity, Method 1: Aβtotal sandwich ELISA on SKNBE2 cell media; type: cell-based; conditions: SKNBE2 cells carrying APP 695 wild type
Procedure: (§1) Screening was carried out using SKNBE2 cells carrying the APP 695—wild type, grown in Dulbecco's Modified Eagle's Medium/Nutrient mixture F-12 (DMEM/NUT-mix F-12) (HAM) provided by Gibco (cat no. 31330-38) containing 5% Serum/Fe supplemented with 1% non-essential amino acids. Cells were grown to near confluency.
(§2) The screening was performed using the assay as described in Citron et al (1997) Nature Medicine 3: 67. Briefly, cells were plated in a 96-well plate at about 10^5 cells/ml one day prior to addition of compounds. Compounds were added to the cells in Ultraculture (Lonza, BE12-725F) supplemented with 1% glutamine (Invitrogen, 25030-024) for 18 hours. The media were assayed by two sandwich ELISAs, for Aβ42 and Aβtotal. Toxicity of the compounds was assayed by WST-1 cell proliferation reagent (Roche, 1 644 807) according to the manufacturer's protocol.
To quantify the amount of Aβtotal in the cell supernatant, samples and standards were added to a 6E10-coated plate. The plate was allowed to incubate overnight at 4° C. in order to allow formation of the antibody-amyloid complex. Following this incubation and subsequent wash steps a selective anti-Aβ-antibody conjugate (biotinylated 4G8) was added and incubated for a minimum of 1 hour in order to allow formation of the antibody-Amyloid-antibody-complex. After incubation and appropriate wash steps, a Streptavidine-Peroxidase-Conjugate was added, followed 30 minutes later by an addition of Quanta Blu fluorogenic peroxidase substrate according to the manufacturer's instructions (Pierce Corp., Rockford, Ill.).
(§3) To obtain the values reported in Table 3a, the sigmoidal dose response curves were analysed by computerised curve-fitting, with percent of inhibition plotted against compound concentration. A 4-parameter equation (model 205) in XLfit was used to determine the IC50. The top and the bottom of the curve were fixed to 100 and 0, respectively, and the hill slope was fixed to 1. The IC50 represents the concentration of a compound that is required for inhibiting a biological effect by 50% (Here, it is the concentration where Aβ peptide level is reduced by 50%).
(§4) To obtain the values reported in Table 3b, the data were calculated as percentage of the maximum amount of amyloid Beta 42 measured in the absence of the test compound. The sigmoidal dose response curves were analyzed using non-linear regression analysis with percentage of the control plotted against the log concentration of the compound. A 4-parameter equation was used to determine the IC50. The values reported in Table 3b are averaged IC50 values.

Aβ42 = experiment: Screening for γ-secretase-modulating activity, Method 1: Aβ42 sandwich ELISA on SKNBE2 cell media; type: cell-based; conditions: SKNBE2 cells carrying APP 695 wild type
Procedure: as §1, §2
To quantify the amount of Aβ42 in the cell supernatant, commercially available Enzyme-Linked-Immunosorbent-Assay (ELISA) kits were used (Innotest® β-Amyloid(1-42), Innogenetics N.V., Ghent, Belgium). The Aβ42 ELISA was performed essentially according to the manufacturer's protocol. Briefly, the standards (dilutions of synthetic Aβ1-42) were prepared in polypropylene Eppendorf with final concentrations of 8000 down to 3.9 pg/ml (1/2 dilution step). Samples, standards and blanks (100 μl) were added to the anti-Aβ42-coated plate supplied with the kit (the capture antibody selectively recognizes the C-terminal end of the antigen). The plate was allowed to incubate 3 h at 25° C. in order to allow formation of the antibody-amyloid complex. Following this incubation and subsequent wash steps a selective anti-Aβ-antibody conjugate (biotinylated 3D6) was added and incubated for a minimum of 1 hour in order to allow formation of the antibody-Amyloid-antibody-complex. After incubation and appropriate wash steps, a Streptavidine-Peroxidase-Conjugate was added, followed 30 minutes later by an addition of 3,3′,5,5′-tetramethylbenzidine (TMB)/peroxide mixture, resulting in the conversion of the substrate into a coloured product. This reaction was stopped by the addition of sulfuric acid (0.9 N) and the colour intensity was measured by means of photometry with an ELISA-reader with a 450 nm filter.
as §3, §4

[1] = Homo sapiens, Table 3a, 18 hours, XLfit, top/bottom fixed to 100 and 0, hill slope 1
[2] = Homo sapiens, Table 3b, non-linear regression of % of control, averaged IC50 values
[3] = Table 3a, 18 hours, XLfit, top/bottom fixed to 100 and 0, hill slope 1
[4] = Table 3b, non-linear regression of % of control, averaged IC50 values

Structure (SMILES): COc1cc(Nc2cccc3c2nc(CC2CCN(C(C)=O)CC2)n3C)ccc1-n1cnc(C)c1 [Compound 10]
- IC50 (Aβtotal; [1]): > 30 µM
- IC50 (Aβtotal; [2]): 29.5 µM
- IC50 (Aβ42; [1]): 0.751 µM
- IC50 (Aβ42; [2]): 0.575 µM

Structure (SMILES): COc1cc(Nc2cccc3c2nc(CC2CCN(C)CC2)n3C)ccc1-n1cnc(C)c1 [Compound 11]
- IC50 (Aβtotal; [1]): 12.1 µM
- IC50 (Aβtotal; [2]): 16.6 µM
- IC50 (Aβ42; [1]): 1.59 µM
- IC50 (Aβ42; [2]): 1.26 µM

Structure (SMILES): Cc1ncnn1-c1ccc(Nc2nccc3c2nc(-c2ccc(F)cc2)n3C(C)C)cc1F [Compound 13]
- IC50 (Aβtotal; [1]): > 10 µM
- IC50 (Aβtotal; [2]): > 10 µM
- IC50 (Aβ42; [1]): 0.603 µM
- IC50 (Aβ42; [2]): 0.603 µM

Structure (SMILES): Cc1ncn(-c2ccc(Nc3cc(C(F)(F)F)cc4c3nc(-c3ccc(F)cc3)n4C)cn2)n1 [Compound 14]
- IC50 (Aβtotal; [1]): > 10 µM
- IC50 (Aβtotal; [2]): > 10 µM
- IC50 (Aβ42; [1]): 0.132 µM
- IC50 (Aβ42; [2]): 0.132 µM

Structure (SMILES): COc1cc(Nc2cccc3oc(-c4ccccc4Cl)nc23)ccc1-n1cnc(C)c1 [Compound 16]
- IC50 (Aβtotal; [1]): > 10 µM
- IC50 (Aβtotal; [2]): > 10 µM
- IC50 (Aβ42; [1]): 0.267 µM
- IC50 (Aβ42; [2]): 0.257 µM

Structure (SMILES): COc1cc(Nc2cccc3oc(C4CCCCC4)nc23)ccc1-n1cnc(C)c1 [Compound 17]
- IC50 (Aβtotal; [1]): > 3 µM
- IC50 (Aβtotal; [2]): > 3 µM
- IC50 (Aβ42; [1]): 0.178 µM
- IC50 (Aβ42; [2]): 0.174 µM

Structure (SMILES): COc1cc(Nc2cccc3c2nc(C)n3C)ccc1-n1cnc(C)c1 [Compound 19]
- IC50 (Aβtotal; [3]): > 10 µM
- IC50 (Aβtotal; [4]): > 10 µM
- IC50 (Aβ42; [3]): 1.66 µM
- IC50 (Aβ42; [4]): 1.66 µM

Structure (SMILES): COc1cc(Nc2cccc3c2nc(C)n3C(C)C)ccc1-n1cnc(C)n1 [Compound 21]
- IC50 (Aβtotal; [3]): > 33 µM
- IC50 (Aβtotal; [4]): 45.7 µM
- IC50 (Aβ42; [3]): 0.905 µM
- IC50 (Aβ42; [4]): 0.891 µM

Structure (SMILES): CCCCc1nc2c(Nc3ccc(-n4cnc(C)n4)c(F)c3)cccc2n1C [Compound 24]
- IC50 (Aβtotal; [3]): 18 µM
- IC50 (Aβtotal; [4]): 17.8 µM
- IC50 (Aβ42; [3]): 0.505 µM
- IC50 (Aβ42; [4]): 0.38 µM

Structure (SMILES): COc1cc(Nc2cccc3c2nc(CC(C)C)n3C)ccc1-n1cnc(C)c1 [Compound 25]
- IC50 (Aβtotal; [3]): > 3 µM
- IC50 (Aβtotal; [4]): > 3 µM
- IC50 (Aβ42; [3]): 0.019 µM
- IC50 (Aβ42; [4]): 0.019 µM

Structure (SMILES): Cc1ncn(-c2ccc(Nc3cccc4c3nc(CC(C)C)n4CC(C)C)cc2)n1 [Compound 26]
- IC50 (Aβtotal; [3]): > 10 µM
- IC50 (Aβtotal; [4]): > 10 µM
- IC50 (Aβ42; [3]): 0.517 µM
- IC50 (Aβ42; [4]): 0.708 µM

Structure (SMILES): COCCn1c(CC(C)C)nc2c(Nc3ccc(-n4cnc(C)n4)cc3)cccc21 [Compound 27]
- IC50 (Aβtotal; [3]): > 10 µM
- IC50 (Aβtotal; [4]): 17.4 µM
- IC50 (Aβ42; [3]): 1.25 µM
- IC50 (Aβ42; [4]): 1.12 µM

Structure (SMILES): COc1cc(Nc2cccc3oc(CC(C)C)nc23)ccc1-n1cnc(C)n1 [Compound 28]
- IC50 (Aβtotal; [3]): > 3 µM
- IC50 (Aβtotal; [4]): > 3 µM
- IC50 (Aβ42; [3]): 1.35 µM
- IC50 (Aβ42; [4]): 1.35 µM

Structure (SMILES): COc1cc(Nc2cccc3c2nc(C(C)(C)C)n3C)ccc1-n1cnc(C)c1 [Compound 29]
- IC50 (Aβtotal; [3]): > 10 µM
- IC50 (Aβtotal; [4]): > 10 µM
- IC50 (Aβ42; [3]): 1.09 µM
- IC50 (Aβ42; [4]): 0.437 µM

Structure (SMILES): COc1cc(Nc2cccc3oc(C(C)(C)C)nc23)ccc1-n1cnc(C)c1 [Compound 30]
- IC50 (Aβtotal; [3]): > 3 µM
- IC50 (Aβtotal; [4]): > 3 µM
- IC50 (Aβ42; [3]): 0.79 µM
- IC50 (Aβ42; [4]): 0.794 µM

Structure (SMILES): COc1cc(Nc2cccc3c2nc(OC(C)C)n3C)ccc1-n1cnc(C)c1 [Compound 31]
- IC50 (Aβtotal; [3]): 29.7 µM
- IC50 (Aβtotal; [4]): > 30 µM
- IC50 (Aβ42; [3]): 0.55 µM
- IC50 (Aβ42; [4]): 0.501 µM

Structure (SMILES): COCCCc1nc2c(Nc3ccc(-n4cnc(C)c4)c(OC)c3)cccc2n1C [Compound 32]
- IC50 (Aβtotal; [3]): > 10 µM
- IC50 (Aβtotal; [4]): > 10 µM
- IC50 (Aβ42; [3]): 0.216 µM
- IC50 (Aβ42; [4]): 0.209 µM

Structure (SMILES): COc1cc(Nc2cccc3c2nc(CCC(F)(F)F)n3C)ccc1-n1cnc(C)c1 [Compound 34]
- IC50 (Aβtotal; [3]): > 1 µM
- IC50 (Aβtotal; [4]): > 1 µM
- IC50 (Aβ42; [3]): 0.051 µM
- IC50 (Aβ42; [4]): 0.043 µM
